In patent US4788193A, “1-aryloxy-3-(substituted alkylamino)-2-propanols, pharmaceutical compositions and use” (Merck & Co., Inc., priority 1987, dated 1988):

What was measured:
Assay type in all cases: cell-based
β2 (trachea) = target: T1, β2 (trachea) (Cavia porcellus, UniProt Q8K4Z4); assay: inhibition of isoproterenol-induced relaxation in isolated guinea pig tracheal chains contracted with PGF2α (β2); settings: read-out: pA2 values β2 (trachea) (converted)
T1 construct: isolated guinea pig tracheal chains; from tissue; host or cells: isolated guinea pig tracheal chains
Description: (§1) The in vitro β-adrenergic blocking properties of the novel compounds of this invention were evaluated in accordance with standard procedures. The interaction with the β1 -receptor was determined via inhibition of the positive chronotropic actions of isoproterenol in isolated guinea pig atrial preparations. β2 potency was determined by using isolated guinea pig tracheal chains contracted with PGF2@ and by measuring inhibition of isoproterenol-induced relaxation.

β1-receptor [1] = target: T2, β1-receptor (Cavia porcellus, UniProt H0W3H1); assay: inhibition of the positive chronotropic actions of isoproterenol in isolated guinea pig atrial preparations (β1); settings: isolated guinea pig atria, isoproterenol chronotropic action; read-out: pA2 values β1 (atria) (converted)
T2 construct: isolated guinea pig atrial preparations; from tissue; host or cells: isolated guinea pig atria
Description: as §1

β1-receptor [2] = assay: as above; settings: β1 (atria) versus β2 (trachea), from pA2 values
Description: as §1

T1 sequence (Q8K4Z4 whole entry): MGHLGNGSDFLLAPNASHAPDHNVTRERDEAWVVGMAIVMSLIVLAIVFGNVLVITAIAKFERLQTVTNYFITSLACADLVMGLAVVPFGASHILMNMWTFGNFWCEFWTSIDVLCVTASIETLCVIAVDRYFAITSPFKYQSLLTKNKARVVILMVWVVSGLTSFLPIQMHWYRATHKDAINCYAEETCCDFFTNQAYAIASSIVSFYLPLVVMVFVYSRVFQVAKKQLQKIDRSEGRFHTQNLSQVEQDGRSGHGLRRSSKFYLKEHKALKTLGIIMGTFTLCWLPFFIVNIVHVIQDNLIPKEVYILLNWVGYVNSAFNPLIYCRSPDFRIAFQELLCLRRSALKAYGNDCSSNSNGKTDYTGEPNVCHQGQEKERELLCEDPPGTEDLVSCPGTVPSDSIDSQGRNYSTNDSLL
T2 sequence (H0W3H1 1-470): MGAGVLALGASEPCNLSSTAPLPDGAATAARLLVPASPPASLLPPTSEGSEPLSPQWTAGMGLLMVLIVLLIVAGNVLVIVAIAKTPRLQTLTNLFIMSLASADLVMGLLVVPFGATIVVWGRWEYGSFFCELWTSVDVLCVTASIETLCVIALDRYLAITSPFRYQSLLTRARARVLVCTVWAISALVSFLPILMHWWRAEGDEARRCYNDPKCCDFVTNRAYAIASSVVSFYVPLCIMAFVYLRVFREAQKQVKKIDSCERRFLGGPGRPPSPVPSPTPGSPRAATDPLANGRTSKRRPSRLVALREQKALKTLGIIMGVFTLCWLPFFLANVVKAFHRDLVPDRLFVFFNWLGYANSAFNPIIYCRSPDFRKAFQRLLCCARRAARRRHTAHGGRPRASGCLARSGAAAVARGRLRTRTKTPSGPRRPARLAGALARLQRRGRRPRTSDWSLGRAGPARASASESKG

SMILES: N#Cc1ccccc1OCC(O)CNCCc1cccnc1 (centres unmarked)
- Kb (β2 (trachea)): 138 nM
- Kb (β1-receptor [1]): 23.4 nM
- Cardioselectivity ratio (β1-receptor [2]): 5.9

SMILES: N#Cc1ccccc1OCC(O)CNCCc1ccccn1 (centres unmarked)
- Kb (β2 (trachea)): 34700 nM
- Kb (β1-receptor [1]): 34.7 nM
- Cardioselectivity ratio (β1-receptor [2]): 1000

SMILES: N#Cc1ccccc1OCC(O)CNCCc1ccncc1 (centres unmarked)
- Kb (β2 (trachea)): 302 nM
- Kb (β1-receptor [1]): 74.1 nM
- Cardioselectivity ratio (β1-receptor [2]): 4.1

SMILES: N#Cc1ccccc1OCC(O)CNCCN1CCNCC1 (centres unmarked)
- Kb (β2 (trachea)): 64.6 nM
- Kb (β1-receptor [1]): 25.7 nM
- Cardioselectivity ratio (β1-receptor [2]): 2.5

SMILES: N#Cc1ccccc1OCC(O)CNCCN1CCOCC1 (centres unmarked)
- Kb (β2 (trachea)): 89.1 nM
- Kb (β1-receptor [1]): 15.5 nM
- Cardioselectivity ratio (β1-receptor [2]): 5.8

SMILES: CN(C)CCNCC(O)COc1ccccc1C#N (centres unmarked) [N(CH3)2, 1-(2-cyanophenoxy)-3-[2-(dimethylamino)ethyl]-amino-2-propanol]
- Kb (β2 (trachea)): 1120 nM
- Kb (β1-receptor [1]): 43.7 nM
